Measurements taken from patent US11214803B2, “Modulators of YAP1 expression” (Ionis Pharmaceuticals, Inc., priority 2019, dated 2022).
Strand notation (5' to 3'): a small letter for the sugar, then the base; units joined by * are phosphorothioate-linked, units joined directly phosphodiester-linked; [ ] holds rarer units or linkages, { } end groups; capitals alone tell only the bases. e = 2'-O-(2-methoxyethyl) (MOE); k = constrained ethyl (cEt); [5mC] = 5-methylcytosine; d = 2'-deoxy (DNA); m = 2'-O-methyl

System: Yap1 mRNA
Experiment: Antisense inhibition of human Yap1 in SNU-449 cells by modified oligonucleotides, single dose (Example 5, RTS36584)
Format: cell-based
Conditions: Table 39; SNU-449 cells, 10,000 cells per well, free uptake, 2,000 nM oligonucleotide, approx. 48 hours; RTS36584; normalized to RIBOGREEN; Yap1 mRNA relative to untreated control
Description: Modified oligonucleotides with additional chemistry modifications were designed to target a Yap1 nucleic acid and were tested for their effect on Yap1 mRNA level in SNU-449 cells. The modified oligonucleotides were tested in a series of experiments that had similar culture conditions. Cultured SNU-449 cells at a density of 10,000 cells per well were treated using free uptake with 2,000 nM of modified oligonucleotide. After a treatment period of approximately 48 hours, RNA was isolated from the cells and Yap1 mRNA levels were measured by quantitative real-time RTPCR. Human primer probe set RTS36584 was used to measure mRNA levels. Yap1 mRNA levels were normalized to total RNA content, as measured by RIBOGREEN®. Results are presented in the tables below as percent control of the amount of Yap1 mRNA relative to untreated control cells (% UTC). The modified oligonucleotides with percent control values marked with an asterisk (*) target the amplicon region of the primer probe set. Additional assays may be used to measure the potency and efficacy of the modified oligonucleotides targeting the amplicon region.
Several different chemistry modifications were tested, which are specified in the Chemistry Notation column of the tables below, wherein the notation “d” refers to a 2′-deoxyribose sugar, the notation “s” refers to a phosphorothioate (P═S) internucleoside linkage, the notation “k” refers to a cEt modified sugar, the notation “y” refers to a 2′-O-methyl ribose sugar, the notation “e” refers to a MOE modified sugar, and the notation “^mC” refers to a 5-methylcytosine.
“Start site” indicates the 5′-most nucleoside to which the gapmer is targeted in the human gene sequence. “Stop site” indicates the 3′-most nucleoside to which the gapmer is targeted human gene sequence. […] Activity of the modified oligonucleotide may be defined in a different experiment.

| Substance | YAP1 (% UTC) |
| --- | --- |
| 1198371 (kA*dT*dT*dG*dT*d[5mC]*dT*d[5mC]*dA*dT*dG*k[5mC]*e[5mC]*kT*eT*kA; antisense) [Compound 1198371] | 15 |
| 1198405 (k[5mC]*dT*dT*dT*dG*dG*dA*dA*dG*dA*dT*k[5mC]*eT*kG*eA*kA; antisense) [Compound 1198405] | 36 |
| 1198403 (kT*dT*dG*dG*dA*dA*dG*dA*dT*d[5mC]*dT*kG*eA*kA*eA*k[5mC]) [Compound 1198403] | 54 |

Same assay, conditions: Table 40 (separate experiment); SNU-449 cells, 10,000 cells per well, free uptake, 2,000 nM oligonucleotide, approx. 48 hours; RTS36584; normalized to RIBOGREEN; Yap1 mRNA relative to untreated control

| Substance | YAP1 (% UTC) |
| --- | --- |
| 1198797 (antisense kA*eA*kG*dT*dA*dA*dG*dG*dT*dT*dT*d[5mC]*e[5mC]*e[5mC]*kA*kG) [Compound 1198797] | 31 |
| 1198731 (kT*e[5mC]*kT*dA*dT*dA*dT*dT*dA*dG*dA*dG*eT*eA*kT*kG; antisense) [Compound 1198731] | 59 |

Same assay, conditions: Table 41; SNU-449 cells, 10,000 cells per well, free uptake, 2,000 nM modified oligonucleotide, approximately 48 hours; RTS36584; normalized to RIBOGREEN; Yap1 mRNA relative to untreated control cells

| Substance | YAP1 (% UTC) |
| --- | --- |
| 1198630 (kA*kA*dT*dT*dG*dT*d[5mC]*dT*d[5mC]*dA*dT*dG*k[5mC]*e[5mC]*kT*eT; antisense) [Compound 1198630] | 37 |

Same assay, conditions: Table 42 (separate experiment); SNU-449 cells, 10,000 cells per well, free uptake, 2,000 nM modified oligonucleotide, approximately 48 hours; RTS36584; normalized to RIBOGREEN; Yap1 mRNA relative to untreated control cells

| Substance | YAP1 (% UTC) |
| --- | --- |
| 1198202 (kG*kA*dA*dA*dT*dT*dG*dT*d[5mC]*dT*d[5mC]*eA*eT*eG*k[5mC]*k[5mC]; antisense) [Compound 1198202] | 14 |
| 1198199 (kA*kT*dT*dG*dT*d[5mC]*dT*d[5mC]*dA*dT*dG*e[5mC]*e[5mC]*eT*kT*kA; antisense) [Compound 1198199] | 38 |
| 1198229 (kT*kT*dA*dA*dG*d[5mC]*dA*d[5mC]*dT*dT*dT*eT*eA*e[5mC]*kA*kT) [Compound 1198229] | 80 |
| 1198225 (k[5mC]*kA*d[5mC]*dT*dT*dT*dT*dA*d[5mC]*dA*dT*eT*eA*eG*kG*kA) [Compound 1198225] | 67 |

Same assay, conditions: Table 43 experiment; SNU-449 cells, 10,000 cells per well, free uptake, 2,000 nM, approximately 48 hours; RTS36584; Yap1 mRNA normalized to RIBOGREEN, relative to untreated control cells

| Substance | YAP1 (% UTC) |
| --- | --- |
| 1198268 (kA*kA*dG*dT*dG*dT*dA*dT*dG*dT*d[5mC]*eA*eG*eA*kA*kG; antisense) [Compound 1198268] | 11 |

Same assay, conditions: Table 44 experiment; SNU-449 cells, 10,000 cells per well, free uptake, 2,000 nM, approximately 48 hours; RTS36584; Yap1 mRNA normalized to RIBOGREEN, relative to untreated control cells

| Substance | YAP1 (% UTC) |
| --- | --- |
| 1198475 (antisense kG*kG*dT*dA*dT*dA*dA*d[5mC]*dT*dG*dG*eG*k[5mC]*eA*kA*eA) [Compound 1198475] | 25 |
| 1198905 (kA*kT*dA*dT*dT*dA*dG*dA*dG*dT*dA*kT*dG*kT*dG*kG; antisense) [Compound 1198905] | 5 |
| 1198904 (kT*kA*dT*dT*dA*dG*dA*dG*dT*dA*dT*kG*dT*kG*dG*k[5mC]; antisense) [Compound 1198904] | 12 |
| 1198527 (kA*kA*dA*dG*dT*dG*dT*dA*dT*dG*dT*e[5mC]*kA*eG*kA*eA; antisense) [Compound 1198527] | 5 |
| 1198902 (kT*kT*dA*dG*dA*dG*dT*dA*dT*dG*dT*kG*dG*k[5mC]*dA*kA; antisense) [Compound 1198902] | 13 |

Same assay, conditions: Table 45; Yap1 mRNA as percent of untreated control, SNU-449 cells, single dose

| Substance | YAP1 (% UTC) |
| --- | --- |
| 1198973 (kG*kA*d[5mC]*dT*dA*dA*dG*dT*dA*dA*dG*kG*dT*kT*dT*k[5mC]; antisense) [Compound 1198973] | 53 |
| 1198929 (kA*kG*dT*dG*d[5mC]*dT*dT*dT*dG*dG*dA*kA*dG*kA*dT*k[5mC]) [Compound 1198929] | 43 |

Same assay, conditions: Table 46; Yap1 mRNA as percent of untreated control, SNU-449 cells, single dose

| Substance | YAP1 (% UT) |
| --- | --- |
| 1198854 (kA*kT*dA*dT*dG*dG*dT*dT*dT*dT*dG*kT*eG*kT*eG*kT; antisense) [Compound 1198854] | 56 |
| 1198855 (kT*kT*dA*dT*dA*dT*dG*dG*dT*dT*dT*kT*eG*kT*eG*kT; antisense) [Compound 1198855] | 30 |
| 1198856 (k[5mC]*kT*dT*dA*dT*dA*dT*dG*dG*dT*dT*kT*eT*kG*eT*kG; antisense) [Compound 1198856] | 20 |
| 1095425 (antisense kT*kG*dA*dG*dG*dT*dA*dT*dA*dA*d[5mC]*kT*eG*kG*eG*k[5mC]) [Compound 1095425] | 57 |
| 1095407 (antisense kA*k[5mC]*dT*dG*dA*dG*dG*dT*dA*dT*dA*kA*e[5mC]*kT*eG*kG) [Compound 1095407] | 54 |
| 1198824 (kA*kG*dG*dT*dA*dT*dA*dA*d[5mC]*dT*dG*kG*eG*k[5mC]*eA*kA; antisense) [Compound 1198824] | 72 |

Same assay, conditions: Table 48; Yap1 mRNA level relative to untreated control; modified oligonucleotides targeting SEQ ID NO.: 1 and 2

| Substance | YAP1 (% UT) |
| --- | --- |
| 1198319 (k[5mC]*kT*kT*dT*dG*dG*dA*dA*dG*dA*dT*d[5mC]*kT*eG*kA*eA; antisense) [Compound 1198319] | 47 |
| 1198323 (kA*kG*kT*dG*d[5mC]*dT*dT*dT*dG*dG*dA*dA*kG*eA*kT*e[5mC]; antisense) [Compound 1198323] | 32 |
| 1198307 (kT*kT*kA*d[5mC]*dA*dT*dT*dA*dG*dG*dA*dA*k[5mC]*eA*kA*eG; antisense) [Compound 1198307] | 49 |
| 1197200 (antisense kT*kT*kA*dT*dA*dT*dG*dG*dT*dT*dT*dT*dG*kT*kG*kT) [Compound 1197200] | 49 |

Same assay, conditions: Table 49; Yap1 mRNA level relative to untreated control; modified oligonucleotides targeting SEQ ID NO.: 1 and 2

| Substance | YAP1 (% UT) |
| --- | --- |
| 1198304 (kA*kG*kG*dT*dA*dT*dA*dA*d[5mC]*dT*dG*dG*kG*e[5mC]*kA*eA; antisense) [Compound 1198304] | 33 |
| 1198555 (antisense kA*kT*kT*dA*dG*dA*dG*dT*dA*dT*dG*dT*kG*kG*k[5mC]*eA) [Compound 1198555] | 11 |
| 1198365 (k[5mC]*kT*kA*dA*dG*dT*dA*dA*dG*dG*dT*dT*kT*e[5mC]*k[5mC]*e[5mC]; antisense) [Compound 1198365] | 13 |
| 1198342 (kG*kA*k[5mC]*dA*dA*d[5mC]*dT*d[5mC]*dT*dT*dA*dT*kA*eT*kG*eG; antisense) [Compound 1198342] | 101 |
| 1198581 (antisense kA*kG*kT*dG*d[5mC]*dT*dT*dT*dG*dG*dA*dA*kG*kA*kT*e[5mC]) [Compound 1198581] | 42 |
| 1198363 (kA*kA*kG*dT*dA*dA*dG*dG*dT*dT*dT*d[5mC]*k[5mC]*e[5mC]*kA*eG; antisense) [Compound 1198363] | 55 |
| 1198580 (antisense kG*kT*kG*d[5mC]*dT*dT*dT*dG*dG*dA*dA*dG*kA*kT*k[5mC]*eT) [Compound 1198580] | 43 |

Same assay, conditions: Table 50; Yap1 mRNA remaining as percent of untreated control (UT), SNU-449 cells, single dose

| Substance | YAP1 (% UT) |
| --- | --- |
| 1198616 (antisense kT*kT*kT*dA*dA*dA*dG*dT*dG*dT*dA*dT*kG*kT*k[5mC]*eA) [Compound 1198616] | 16 |
| 1197235 (antisense kA*kT*kT*dA*mG*dA*dG*dT*dA*dT*dG*dT*dG*kG*k[5mC]*kA) [Compound 1197235] | 16 |
| 1197286 (kA*kT*kA*dT*mU*dA*dG*dA*dG*dT*dA*dT*dG*kT*kG*kG) [Compound 1197286] | 43 |
| 1198619 (kT*kA*kA*dG*dG*dT*dT*dT*d[5mC]*d[5mC]*d[5mC]*dA*kG*kA*kT*eT) [Compound 1198619] | 53 |

Same assay, conditions: Table 51; Yap1 mRNA remaining as percent of untreated control (UT), SNU-449 cells, single dose

| Substance | YAP1 (% UT) |
| --- | --- |
| 1197238 (antisense kA*kG*kG*dT*mA*dT*dA*dA*d[5mC]*dT*dG*dG*dG*k[5mC]*kA*kA) [Compound 1197238] | 43 |

Same assay, conditions: Table 52; Yap1 mRNA, modified oligonucleotides targeting SEQ ID NO: 1 and 2

| Substance | YAP1 (% UT) |
| --- | --- |
| 1200831 (kT*kT*kT*dA*dG*mG*dA*dT*dG*d[5mC]*dA*dT*dG*kG*kT*kT; antisense) [Compound 1200831] | 42 |
| 1200790 (kT*kG*kG*dA*dA*mA*dT*dT*dG*dT*d[5mC]*dT*d[5mC]*kA*kT*kG; antisense) [Compound 1200790] | 33 |
| 1200841 (kT*k[5mC]*kT*dT*dA*mU*dA*dT*dG*dG*dT*dT*dT*kT*kG*kT; antisense) [Compound 1200841] | 76 |

Same assay, conditions: Yap1 mRNA, percent of untreated control; modified oligonucleotides targeting SEQ ID NO: 1 and 2; Table 47

| Substance | YAP1 (% UT) |
| --- | --- |
| 1198874 (kA*kA*dG*dT*dG*dT*dA*dT*dG*dT*d[5mC]*kA*eG*kA*eA*kG) [Compound 1198874] | 2 |
